Key:
ErbB2 WT = ErbB2 WT (Homo sapiens (Human), UniProt P04626); assay: ErbB Enzyme Assay (HTRF KinEASE-TK), Assay 2; format: biochemical; conditions: ErbB2 WT enzyme
EGFR = EGFR (Homo sapiens (Human), UniProt P00533); assay: ErbB Enzyme Assay (HTRF KinEASE-TK), Assay 3; format: biochemical; conditions: EGFR enzyme
[1] = target: ErbB2 with Exon 20 YVMA insertion (HER2-YVMA) (Homo sapiens (Human), UniProt P04626, INS775YVMA); assay: Cellular Phosphorylation Assay, Assay 4 (constitutive ErbB2 phosphorylation, NIH 3T3 cells); format: cell-based; conditions: ErbB2 YVMA phosphorylation
EGFR wild type (EGFR WT) = EGFR wild type (EGFR WT) (Homo sapiens (Human), UniProt P00533); assay: Cellular Phosphorylation Assay, Assay 5 (EGF-stimulated EGFR phosphorylation, NIH 3T3 cells); format: cell-based; conditions: EGF-stimulated EGFR WT phosphorylation
BCRP = BCRP (Homo sapiens (Human), UniProt Q9UNQ0); assay: BCRP MDCKII efflux assay (Assay 7); format: in vitro ADME; conditions: dog; efflux ratio Papp(B-A)/Papp(A-B), BCRP MDCKII cells; read-out: Assay 7 Pe Ratio
Experimental: Assay conditions included with and without the BCRP-specific inhibitor, KO143, at a concentration of 0.3 μM to ascertain the contribution of BCRP to the efflux value of the test compound.
Final organic concentration in the assay was 1%.

Sequence of ErbB2 WT (P04626 23-1255): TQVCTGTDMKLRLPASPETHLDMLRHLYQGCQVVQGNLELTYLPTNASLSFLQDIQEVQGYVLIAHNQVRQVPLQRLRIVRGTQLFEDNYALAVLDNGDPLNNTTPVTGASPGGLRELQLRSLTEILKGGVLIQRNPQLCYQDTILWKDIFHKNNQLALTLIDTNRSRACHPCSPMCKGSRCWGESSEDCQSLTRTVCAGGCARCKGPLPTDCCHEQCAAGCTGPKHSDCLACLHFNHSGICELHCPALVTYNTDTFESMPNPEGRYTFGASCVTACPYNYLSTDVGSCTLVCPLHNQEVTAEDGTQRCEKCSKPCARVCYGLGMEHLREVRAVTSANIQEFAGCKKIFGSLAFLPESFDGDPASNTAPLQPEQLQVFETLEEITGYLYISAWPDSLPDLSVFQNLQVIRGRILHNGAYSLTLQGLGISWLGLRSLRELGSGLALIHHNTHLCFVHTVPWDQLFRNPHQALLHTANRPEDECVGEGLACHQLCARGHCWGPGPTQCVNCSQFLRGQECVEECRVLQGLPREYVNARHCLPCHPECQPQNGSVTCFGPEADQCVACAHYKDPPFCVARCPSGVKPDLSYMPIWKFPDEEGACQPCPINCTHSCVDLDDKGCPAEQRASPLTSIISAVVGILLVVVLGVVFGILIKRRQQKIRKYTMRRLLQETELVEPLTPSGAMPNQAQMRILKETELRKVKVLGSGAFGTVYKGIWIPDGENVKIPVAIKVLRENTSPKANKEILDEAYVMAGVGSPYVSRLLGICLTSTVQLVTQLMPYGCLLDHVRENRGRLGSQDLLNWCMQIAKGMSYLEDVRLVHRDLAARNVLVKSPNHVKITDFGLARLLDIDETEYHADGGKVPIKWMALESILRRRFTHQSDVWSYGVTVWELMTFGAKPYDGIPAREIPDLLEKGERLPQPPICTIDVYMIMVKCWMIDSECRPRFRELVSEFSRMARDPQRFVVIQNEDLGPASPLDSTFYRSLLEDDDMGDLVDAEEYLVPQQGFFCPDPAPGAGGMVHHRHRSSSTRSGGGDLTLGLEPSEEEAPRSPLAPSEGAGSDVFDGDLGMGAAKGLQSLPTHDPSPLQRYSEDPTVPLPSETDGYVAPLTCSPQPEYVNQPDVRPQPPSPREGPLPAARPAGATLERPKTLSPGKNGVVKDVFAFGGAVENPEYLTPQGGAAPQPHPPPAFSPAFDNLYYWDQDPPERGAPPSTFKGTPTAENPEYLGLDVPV
Sequence of BCRP (Q9UNQ0 whole entry): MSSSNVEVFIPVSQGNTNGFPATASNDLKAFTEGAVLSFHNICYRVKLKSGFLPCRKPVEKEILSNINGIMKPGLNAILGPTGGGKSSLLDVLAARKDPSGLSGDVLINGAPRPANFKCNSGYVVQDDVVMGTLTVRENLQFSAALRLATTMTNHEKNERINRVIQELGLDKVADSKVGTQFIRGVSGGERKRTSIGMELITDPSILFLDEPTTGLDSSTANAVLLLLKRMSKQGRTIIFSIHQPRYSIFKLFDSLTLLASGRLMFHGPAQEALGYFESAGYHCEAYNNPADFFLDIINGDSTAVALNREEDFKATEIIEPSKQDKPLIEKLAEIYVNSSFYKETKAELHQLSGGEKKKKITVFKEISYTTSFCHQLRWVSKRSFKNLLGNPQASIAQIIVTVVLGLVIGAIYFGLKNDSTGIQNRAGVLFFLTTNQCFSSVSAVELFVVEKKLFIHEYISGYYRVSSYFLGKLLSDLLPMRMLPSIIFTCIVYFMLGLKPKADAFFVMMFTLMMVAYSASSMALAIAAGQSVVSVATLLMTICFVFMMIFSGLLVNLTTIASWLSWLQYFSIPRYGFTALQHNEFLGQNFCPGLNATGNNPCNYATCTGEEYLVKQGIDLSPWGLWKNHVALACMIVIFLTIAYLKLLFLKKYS
Sequence of EGFR (P00533 25-1210): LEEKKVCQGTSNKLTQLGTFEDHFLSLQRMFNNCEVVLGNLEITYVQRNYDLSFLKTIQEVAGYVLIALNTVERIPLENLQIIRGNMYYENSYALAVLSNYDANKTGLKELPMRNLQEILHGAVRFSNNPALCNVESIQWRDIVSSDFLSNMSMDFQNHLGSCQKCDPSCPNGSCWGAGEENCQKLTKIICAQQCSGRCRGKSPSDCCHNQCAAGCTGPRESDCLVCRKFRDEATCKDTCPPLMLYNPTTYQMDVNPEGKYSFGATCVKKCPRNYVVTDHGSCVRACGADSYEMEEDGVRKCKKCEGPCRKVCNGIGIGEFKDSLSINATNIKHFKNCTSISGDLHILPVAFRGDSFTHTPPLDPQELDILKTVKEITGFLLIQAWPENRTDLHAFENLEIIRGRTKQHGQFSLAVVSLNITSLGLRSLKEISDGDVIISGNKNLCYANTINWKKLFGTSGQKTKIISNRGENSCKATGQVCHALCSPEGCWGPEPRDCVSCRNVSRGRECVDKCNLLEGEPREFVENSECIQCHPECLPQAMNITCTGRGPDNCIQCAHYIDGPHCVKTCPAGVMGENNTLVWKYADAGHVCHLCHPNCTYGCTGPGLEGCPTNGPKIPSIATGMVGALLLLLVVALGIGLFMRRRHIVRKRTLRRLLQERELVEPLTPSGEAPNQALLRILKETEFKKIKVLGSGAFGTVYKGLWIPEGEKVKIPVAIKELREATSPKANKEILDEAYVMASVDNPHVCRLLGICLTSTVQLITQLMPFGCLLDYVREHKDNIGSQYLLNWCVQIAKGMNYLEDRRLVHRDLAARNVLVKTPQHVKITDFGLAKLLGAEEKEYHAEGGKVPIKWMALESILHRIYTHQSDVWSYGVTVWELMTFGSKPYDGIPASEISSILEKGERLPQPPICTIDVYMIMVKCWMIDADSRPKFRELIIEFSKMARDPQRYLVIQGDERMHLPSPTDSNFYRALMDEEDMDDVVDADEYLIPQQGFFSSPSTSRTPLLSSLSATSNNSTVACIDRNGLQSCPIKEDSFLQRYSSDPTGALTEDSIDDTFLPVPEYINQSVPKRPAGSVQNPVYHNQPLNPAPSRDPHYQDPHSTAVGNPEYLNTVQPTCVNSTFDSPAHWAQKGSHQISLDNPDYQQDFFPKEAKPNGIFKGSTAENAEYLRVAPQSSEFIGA
Sequence of EGFR wild type (EGFR WT) (P00533 25-1210): as above

Row | IC50 (ErbB2 WT) | IC50 (EGFR) | IC50 [1] | IC50 (EGFR wild type (EGFR WT)) | efflux ratio at 2 h, 1 µM (BCRP) | Compound
1 | 81.5 nM | 5580 nM | 9.6 nM | ≥ 5000 nM | 6.3 | C=CC(=O)N1C[C@H]2C[C@@H]1CN2c1ccc2ncnc(Nc3ccc(Oc4ccc5c(c4)ncn5C)c(C)c3F)c2n1 [Example 83, 1-((1R,4R)-5-(4-((2-fluoro-3-methyl-4-((1-methyl-1H-benzo[d]imidazol-5-yl)oxy)phenyl)amino)pyrido[3,2-d]pyrimidin-6-yl)-2,5-diazabicyclo[2.2.1]heptan-2-yl)prop-2-en-1-one]
2 | 170 nM | ≥ 10000 nM | 30.6 nM | ≥ 5000 nM | 6.8 | C=CC(=O)N1C[C@H]2C[C@@H]1CN2c1ccc2ncnc(Nc3ccc(Oc4ccn5ncnc5c4)c(C)c3F)c2n1 [Example 94, 1-((1R,4R)-5-(4-((4-([1,2,4]triazolo[1,5-a]pyridin-7-yloxy)-2-fluoro-3-methylphenyl)amino)pyrido[3,2-d]pyrimidin-6-yl)-2,5-diazabicyclo[2.2.1]heptan-2-yl)prop-2-en-1-one]
3 | 3.2 nM | 344 nM | 3.2 nM | 413 nM | 47 | C=CC(=O)N1CCN(c2ccc3ncnc(Nc4ccc(Oc5ccn6ncnc6c5)c(Cl)c4)c3n2)CC1 [Example 97, 1-(4-(4-((4-([1,2,4]triazolo[1,5-a]pyridin-7-yloxy)-3-chlorophenyl)amino)pyrido[3,2-d]pyrimidin-6-yl)piperazin-1-yl)prop-2-en-1-one]
4 | 51.1 nM | 3360 nM | 18.9 nM | 2680 nM | 11 | C=CC(=O)N1CCCN(c2ccc3ncnc(Nc4ccc(Oc5ccn6ncnc6c5)c(Cl)c4F)c3n2)CC1 [Example 98, 1-(4-(4-((4-([1,2,4]triazolo[1,5-a]pyridin-7-yloxy)-3-chloro-2-fluorophenyl)amino)pyrido[3,2-d]pyrimidin-6-yl)-1,4-diazepan-1-yl)prop-2-en-1-one]
5 | 2.9 nM | ≥ 10000 nM | 4.6 nM | 1320 nM | 10.9 | C=CC(=O)N1CCN(c2ccc3ncnc(Nc4ccc(Oc5ccc6c(c5)ncn6C)c(C)c4)c3n2)CC1(C)C [Example 103, 1-(2,2-dimethyl-4-(4-((3-methyl-4-((1-methyl-1H-benzo[d]imidazol-5-yl)oxy)phenyl)amino)pyrido[3,2-d]pyrimidin-6-yl)piperazin-1-yl)prop-2-en-1-one]
6 | 11.9 nM | 680 nM | 5 nM | 1350 nM | 31.6 | C=CC(=O)N1CCN(c2ccc3ncnc(Nc4ccc(Oc5ccc6c(c5)ncn6C)c(C)c4)c3n2)CC1 [Example 105, 1-(4-(4-((3-methyl-4-((1-methyl-1H-benzo[d]imidazol-5-yl)oxy)phenyl)amino)pyrido[3,2-d]pyrimidin-6-yl)piperazin-1-yl)prop-2-en-1-one]
7 | 18.5 nM | 7790 nM | 6 nM | ≥ 5000 nM | 10.1 | C=CC(=O)N1[C@H](C)CN(c2ccc3ncnc(Nc4ccc(Oc5ccc6c(c5)ncn6C)c(C)c4)c3n2)C[C@@H]1C [Example 106, 1-((2S,6R)-2,6-dimethyl-4-(4-((3-methyl-4-((1-methyl-1H-benzo[d]imidazol-5-yl)oxy)phenyl)amino)pyrido[3,2-d]pyrimidin-6-yl)piperazin-1-yl)prop-2-en-1-one]
8 | 29.4 nM | ≥ 10000 nM | 7.4 nM | ≥ 5000 nM | 30.1 | C=CC(=O)N1CCCN(c2ccc3ncnc(Nc4ccc(Oc5ccc6c(c5)ncn6C)c(C)c4)c3n2)CC1 [Example 108, 1-(4-(4-((3-methyl-4-((1-methyl-1H-benzo[d]imidazol-5-yl)oxy)phenyl)amino)pyrido[3,2-d]pyrimidin-6-yl)-1,4-diazepan-1-yl)prop-2-en-1-one]
9 | 58 nM | 6160 nM | 5 nM | 2530 nM | 84.4 | C=CC(=O)N1CCN(c2ccc3ncnc(Nc4ccc(Oc5cnc6c(c5)ncn6C)c(C)c4)c3n2)CC1 [Example 110, 1-(4-(4-((3-methyl-4-((3-methyl-3H-imidazo[4,5-b]pyridin-6-yl)oxy)phenyl)amino)pyrido[3,2-d]pyrimidin-6-yl)piperazin-1-yl)prop-2-en-1-one]
10 | 184 nM | ≥ 10000 nM | 30.2 nM | ≥ 5000 nM | 37.5 | C=CC(=O)N1CCCN(c2ccc3ncnc(Nc4ccc(Oc5cnc6c(c5)ncn6C)c(Cl)c4)c3n2)CC1 [Example 113, 1-(4-(4-((3-chloro-4-((3-methyl-3H-imidazo[4,5-b]pyridin-6-yl)oxy)phenyl)amino)pyrido[3,2-d]pyrimidin-6-yl)-1,4-diazepan-1-yl)prop-2-en-1-one]
11 | 255 nM | ≥ 10000 nM | 29.9 nM | ≥ 5000 nM | 23.5 | C=CC(=O)N1CCCN(c2ccc3ncnc(Nc4ccc(Oc5cnc6c(c5)ncn6C)c(C)c4)c3n2)CC1 [Example 114, 1-(4-(4-((3-methyl-4-((3-methyl-3H-imidazo[4,5-b]pyridin-6-yl)oxy)phenyl)amino)pyrido[3,2-d]pyrimidin-6-yl)-1,4-diazepan-1-yl)prop-2-en-1-one]
12 | 52.3 nM | 2580 nM | 10.2 nM | 1580 nM | 22.4 | C=CC(=O)N1C[C@H]2CN(c3ccc4ncnc(Nc5ccc(Oc6ccc7c(c6)ncn7C)c(C)c5)c4n3)C[C@H]21 [Example 116, 1-((1R,5S)-3-(4-((3-methyl-4-((1-methyl-1H-benzo[d]imidazol-5-yl)oxy)phenyl)amino)pyrido[3,2-d]pyrimidin-6-yl)-3,6-diazabicyclo[3.2.0]heptan-6-yl)prop-2-en-1-one]
13 | 60.4 nM | ≥ 10000 nM | 7.6 nM | ≥ 5000 nM | 7.3 | C=CC(=O)N1CCC(c2ccc3ncnc(Nc4ccc(Oc5ccc6c(c5)ncn6C)c(C)c4)c3n2)CC1C (centres unmarked) [Example 123, 1-(2-methyl-4-(4-((3-methyl-4-((1-methyl-1H-benzo[d]imidazol-5-yl)oxy)phenyl)amino)pyrido[3,2-d]pyrimidin-6-yl)piperidin-1-yl)prop-2-en-1-one]
14 | 15.8 nM | 2580 nM | 36.7 nM | ≥ 5000 nM | 4.3 | C=CC(=O)N1CCC(c2ccc3ncnc(Nc4ccc(Oc5ccc6c(c5)ncn6C)c(C)c4F)c3n2)CC1 [Example 146, 1-(4-(4-((2-fluoro-3-methyl-4-((1-methyl-1H-benzo[d]imidazol-5-yl)oxy)phenyl)amino)pyrido[3,2-d]pyrimidin-6-yl)piperidin-1-yl)prop-2-en-1-one]
15 | 37.3 nM | 1040 nM | 20.9 nM | 613 nM | 17.5 | C=CC(=O)N1CCN(c2nc3c(Nc4ccc(Oc5ccn6ncnc6c5)c(C)c4F)ncnc3cc2OC)CC1 [Example 152, 1-(4-(4-((4-([1,2,4]triazolo[1,5-a]pyridin-7-yloxy)-2-fluoro-3-methylphenyl)amino)-7-methoxypyrido[3,2-d]pyrimidin-6-yl)piperazin-1-yl)prop-2-en-1-one]
16 | 209 nM | 2270 nM | 21.3 nM | 1740 nM | 6.8 | C=CC(=O)N1CCC(Oc2nc3c(Nc4ccc(Oc5ccc6cn(C)nc6c5)c(C)c4)ncnc3cc2OC)CC1 [Example 157, 1-(4-((7-methoxy-4-((3-methyl-4-((2-methyl-2H-indazol-6-yl)oxy)phenyl)amino)pyrido[3,2-d]pyrimidin-6-yl)oxy)piperidin-1-yl)prop-2-en-1-one]
17 | 20.4 nM | 452 nM | 12 nM | 493 nM | 15 | C=CC(=O)N1CCC(Sc2nc3c(Nc4ccc(Oc5ccc6c(c5)ncn6C)c(C)c4)ncnc3cc2OC)CC1 [Example 159, 1-(4-((7-methoxy-4-((3-methyl-4-((1-methyl-1H-benzo[d]imidazol-5-yl)oxy)phenyl)amino)pyrido[3,2-d]pyrimidin-6-yl)thio)piperidin-1-yl)prop-2-en-1-one]
18 | 132 nM | ≥ 10000 nM | 22.1 nM | ≥ 5000 nM | 2.1 | C=CC(=O)N1C[C@H](c2ccc3ncnc(Nc4cc(C)c(Oc5ccc6c(c5)ncn6C)cc4F)c3n2)C[C@H]1C [Example 192, 1-((2R,4R)-4-(4-((2-fluoro-5-methyl-4-((1-methyl-1H-benzo[d]imidazol-5-yl)oxy)phenyl)amino)pyrido[3,2-d]pyrimidin-6-yl)-2-methylpyrrolidin-1-yl)prop-2-en-1-one]

Row | Compound | IC50 (ErbB2 WT) | IC50 (EGFR) | IC50 [1] | IC50 (EGFR wild type (EGFR WT)) | efflux ratio at 2 h, 1 µM (BCRP)
19 | C=CC(=O)N1[C@@H]2CC[C@H]1C[C@H](c1ccc3ncnc(Nc4ccc(Oc5ccc6c(c5)ncn6C)c(C)c4F)c3n1)C2 [Example 195, 1-((1R,3s,5S)-3-(4-((2-fluoro-3-methyl-4-((1-methyl-1H-benzo[d]imidazol-5-yl)oxy)phenyl)amino)pyrido[3,2-d]pyrimidin-6-yl)-8-azabicyclo[3.2.1]octan-8-yl)prop-2-en-1-one] | 59.7 nM | 2550 nM | 17.9 nM | 1060 nM | 1.7

— patent US12447153B2, “HER2 mutation inhibitors” (Array BioPharma Inc., priority 2021, dated 2025)
